Test results reported in article PMC11527646, “Pharmacological blockade of the mast cell MRGPRX2 receptor supports investigation of its relevance in skin disorders” (Frontiers in Immunology, 2024).
Read-outs that look alike come from different tables or passages of the source.

Key:
MRGPRX2 [1] = target: T1, MRGPRX2 (Homo sapiens, UniProt Q96LB1); experiment: Human ex vivo skin microdialysis, Substance P-stimulated histamine release; format: cell-based; conditions: Substance P 50 μM; three donors
T1 sequence (Q96LB1 1-330): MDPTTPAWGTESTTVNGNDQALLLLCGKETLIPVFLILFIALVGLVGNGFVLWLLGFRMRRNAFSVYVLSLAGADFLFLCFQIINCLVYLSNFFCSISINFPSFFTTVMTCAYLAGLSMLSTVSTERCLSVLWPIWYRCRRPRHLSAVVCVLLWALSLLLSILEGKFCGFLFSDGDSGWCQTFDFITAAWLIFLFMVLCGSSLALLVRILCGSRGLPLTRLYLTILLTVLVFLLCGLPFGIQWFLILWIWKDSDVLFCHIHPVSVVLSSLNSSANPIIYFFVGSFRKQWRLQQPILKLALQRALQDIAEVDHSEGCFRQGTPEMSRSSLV
Procedure: Microdialysis probes with a 3,000-kDa molecular weight cutoff (EP Medical, Copenhagen, Denmark) were primed for 1 h using a basal perfusate consisting of 0.1% human serum albumin in piperazine-N,N′-bis(2-ethanesulfonic acid) (PIPES) buffer to minimize non-specific adsorption to probe components.
Skin specimens measuring approximately 4 cm × 14 cm were excised from the parent skin sample, and subcutaneous fat was removed mechanically. The skin specimens were fixated on Styrofoam and guide cannulas (21G) were inserted intradermally at least 1 cm apart and ≥ 1 cm from the edge of the skin specimen. Ten probes were introduced into each skin specimen by means of the guide cannulas with an intradermal probe span of 20 mm. Probes were perfused at a flow rate of 3.0 μL/min (used throughout the experiment) for 30 min using basal perfusate in order to remove any unspecific histamine release caused by insertion trauma.
Next, the dialysate was collected for 10 min to assess basal skin histamine levels (“basal”). The probes were then switched to perfusion with a perfusate containing antagonists at different concentrations for 60 min to pre-treat the skin specimens and evaluate potential off-target effects, which could present as histamine release caused by antagonist itself (“pre-treatment”). […] Histamine in the dialysates was quantified as described above. […]

[2] = target: T2, monkey MRGPRX2 (Cynomolgus macaques) (Macaca fascicularis, UniProt Q5U9D9); experiment: Calcium mobilization in BacMam-transduced U2OS cells; format: cell-based; conditions: for Antagonist activity: likely due to receptor desensitization upon activation and not real antagonism
T2 construct: expressed in transfected cells; host or cells: U2OS transduced with BacMam virus
T2 sequence (Q5U9D9 1-330): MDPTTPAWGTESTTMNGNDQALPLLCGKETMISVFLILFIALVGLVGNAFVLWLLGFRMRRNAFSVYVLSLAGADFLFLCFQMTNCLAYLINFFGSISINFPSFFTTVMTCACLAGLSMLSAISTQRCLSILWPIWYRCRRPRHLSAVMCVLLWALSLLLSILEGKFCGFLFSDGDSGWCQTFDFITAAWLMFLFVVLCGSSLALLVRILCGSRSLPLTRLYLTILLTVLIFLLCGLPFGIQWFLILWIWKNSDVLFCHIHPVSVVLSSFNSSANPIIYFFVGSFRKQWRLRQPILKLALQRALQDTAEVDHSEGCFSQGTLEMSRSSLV
Procedure: (§1) Cell culture reagents were purchased from Thermo Fisher Scientific unless otherwise stated. The LAD2 human mast cell line was in-licensed from National Institutes of Health (NIH) and routinely cultured in StemPro™-34 SFM with nutrient supplement, 1× GlutaMax™, and recombinant human SCF (100 ng/mL). HEK293-MRGPRX2/Gα15 cells were cultured in DMEM containing 10% FBS. The parental U2OS cells were culture in DMEM/F-12 containing 10% FBS. BacMam virus containing human MRGPRX2 gene or animal orthologs [mouse Mrgprb2 (Gene ID: 243979), rat Mrgprb3 (Gene ID: 691194), dog MRGPRX2 (Gene ID: 102125889), cynomolgus monkey MRGPRX2 (Gene ID: 692078), and rhesus monkey MRGPRX2] were used to transduce U2OS cells for transient expression.
(§2) Supplemental Table 1: Compound A and Compound B are human MRGPRX2 selective antagonists. Antagonist and agonist activities of the two compounds were determined in calcium mobilization assays for human MRGPRX2 and its animal orthologs from various species. The activities were measured in […] (Molecular Devices) instrument using U2OS cells transduced with BacMam virus for transient expression of the relevant receptors. Data are presented as mean ± SEM when applicable.
(§3) Compound A and Compound B up to the highest concentration (100 µM) tested. In the antagonist […]
(§4) Compound A and B, respectively. […]
(§5) MRGPRX2 and Gα15 proteins (Fig. 1). On monkey MRGPRX2 receptors (both Cynomolgus […]
(§6) receptor desensitization upon activation and not real antagonism. […]

[3] = target: T3, monkey MRGPRX2 (Rhesus macaques) (Macaca mulatta, UniProt Q4QXU5); experiment: as above; format: cell-based; conditions: for Antagonist activity: likely due to receptor desensitization upon activation and not real antagonism
T3 construct: expressed in transfected cells; host or cells: U2OS transduced with BacMam virus
Procedure: as §1, §2, §3, §4, §5, §6

[4] = test system: dog MRGPRX2 (beagle & boxer); experiment: as above; format: cell-based
Procedure: as §1, §2, §3, §4
(§7) Taking together, […]

mouse MrgB2 = target: T4, mouse MrgB2 (Mus musculus, UniProt Q3KNA1); experiment: as above; format: cell-based
T4 construct: expressed in transfected cells; host or cells: U2OS transduced with BacMam virus
Procedure: as §1, §2, §3, §4, §7

rat MrgB3 = experiment: as above; format: cell-based
Procedure: as §1, §2, §3, §4, §7

MRGPRX1 = target: T5, MRGPRX1 (Homo sapiens, UniProt Q96LB2); experiment: GPCR selectivity cellular assay; format: cell-based; conditions: for EC50: Agonism, read-out: Agonist Activity (EC50); for IC50: Antagonism, read-out: Antagonist Activity (IC50)
T5 construct: expressed in transfected cells
Procedure: Antagonist and/or agonist activities of the two compounds were determined in cellular assays for 20 human G-protein coupled receptors (GPCR) beside MRGPRX2. Recombinant over-expression systems in mammalian cells were used for all assays listed in this table. […]
reported as ‘>’ the highest compound concentration allowed in that assay. […]
Agonist Activity (EC50 ) or Antagonist Activity (IC50 ), nM

C3aR1 = target: T6, C3aR1 (Homo sapiens, UniProt Q16581); conditions: for Effect on C3a-stimulated LAD2 degranulation: increasing concentrations of antagonist
T6 sequence (Q16581 1-482): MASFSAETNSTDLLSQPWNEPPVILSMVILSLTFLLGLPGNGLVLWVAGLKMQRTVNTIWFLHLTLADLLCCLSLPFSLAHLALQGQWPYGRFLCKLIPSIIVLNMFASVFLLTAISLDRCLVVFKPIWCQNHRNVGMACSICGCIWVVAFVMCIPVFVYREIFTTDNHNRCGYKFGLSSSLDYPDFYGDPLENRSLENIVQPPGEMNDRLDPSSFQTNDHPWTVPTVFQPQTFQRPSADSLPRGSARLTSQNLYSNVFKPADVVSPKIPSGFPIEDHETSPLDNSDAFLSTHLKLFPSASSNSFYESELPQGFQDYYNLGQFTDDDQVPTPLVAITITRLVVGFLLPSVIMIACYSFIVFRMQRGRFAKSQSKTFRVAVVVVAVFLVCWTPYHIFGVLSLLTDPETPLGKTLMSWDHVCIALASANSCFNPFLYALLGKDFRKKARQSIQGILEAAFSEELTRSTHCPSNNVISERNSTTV
Description: Release of β-hexosaminidase from LAD2 cells was followed as a measurement of mast cell degranulation using a method described previously ([4]).
Potency data are presented as mean ± SEM.

MRGPRX2 [5] = target: T1, MRGPRX2; experiment: LAD2 mast cell degranulation (β-hexosaminidase release), MRGPRX2 ligand-mediated; format: cell-based; set-up: human mast cells expressing endogenous MRGPRX2; endogenous in cells; […]; conditions: for IC50: mean ± SEM; for EC50: agonist mode, no mast cell activator, up to 50 μM tested, read-out: Activation of LAD-2 Cells EC50; for Kb: read-out: pA2 (apparent antagonist affinity, Schild analysis) (converted); for Nature of antagonism: vs Substance P concentration response curves
Procedure: Two different in vitro human mast cell systems were studied: (a) a human mast cell line, LAD2, established from a patient with mast cell sarcoma; and (b) mast cells freshly isolated from human skin. MRGPRX2 antagonist IC50 values were determined in the LAD2 mast cell degranulation assay using approximately EC80 concentrations for five different MRGPRX2 activating ligands (see Supplementary Figure 1 ).

[6] = Mast Cell Activator: Compound 48/80 at approx. EC80, read-out: Inhibition of Ligand Mediated LAD-2 Cell Activation and Degranulation IC50

T3 sequence (Q4QXU5 whole entry): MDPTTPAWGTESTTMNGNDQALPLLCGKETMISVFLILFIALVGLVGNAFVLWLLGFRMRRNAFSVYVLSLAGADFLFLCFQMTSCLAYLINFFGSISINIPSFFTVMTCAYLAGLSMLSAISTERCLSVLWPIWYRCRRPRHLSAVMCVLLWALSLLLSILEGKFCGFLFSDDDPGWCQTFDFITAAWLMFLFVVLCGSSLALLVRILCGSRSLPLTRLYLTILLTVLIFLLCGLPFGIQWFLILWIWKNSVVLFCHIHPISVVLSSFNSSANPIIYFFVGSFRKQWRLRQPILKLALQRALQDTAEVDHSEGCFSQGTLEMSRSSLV
T5 sequence (Q96LB2 whole entry): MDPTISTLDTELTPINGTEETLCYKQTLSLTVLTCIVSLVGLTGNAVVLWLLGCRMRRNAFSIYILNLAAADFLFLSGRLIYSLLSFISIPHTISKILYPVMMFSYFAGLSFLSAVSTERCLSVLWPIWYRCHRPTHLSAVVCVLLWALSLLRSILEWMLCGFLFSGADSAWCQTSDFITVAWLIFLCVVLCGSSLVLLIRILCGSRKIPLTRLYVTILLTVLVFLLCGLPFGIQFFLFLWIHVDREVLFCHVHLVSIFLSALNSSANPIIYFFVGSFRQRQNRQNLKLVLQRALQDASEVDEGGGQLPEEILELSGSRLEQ
T4 sequence (Q3KNA1 whole entry): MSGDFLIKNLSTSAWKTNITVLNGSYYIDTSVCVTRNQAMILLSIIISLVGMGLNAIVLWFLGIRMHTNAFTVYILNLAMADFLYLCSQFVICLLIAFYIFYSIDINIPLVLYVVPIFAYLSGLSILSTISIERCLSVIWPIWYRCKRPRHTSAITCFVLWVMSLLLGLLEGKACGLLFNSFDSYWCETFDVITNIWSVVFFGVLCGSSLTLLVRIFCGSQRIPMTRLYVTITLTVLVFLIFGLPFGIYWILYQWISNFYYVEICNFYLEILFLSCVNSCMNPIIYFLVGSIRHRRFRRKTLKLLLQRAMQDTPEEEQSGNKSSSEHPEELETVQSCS

| SMILES | Concentration achieving complete blockade of Substance P response (histamine release) (MRGPRX2 [1]) [µM] | Agonist activity [2] | Antagonist activity [2] | Agonist activity [3] | Antagonist activity [3] | Agonist and antagonist activity [4] | Agonist and antagonist activity (mouse MrgB2) | Agonist and antagonist activity (rat MrgB3) | EC50 (MRGPRX1) [µM] | IC50 (MRGPRX1) [µM] | IC50 (C3aR1) [µM] | Effect on C3a-stimulated LAD2 degranulation (C3aR1) | IC50 (MRGPRX2 [5]; [6]) [µM] | EC50 (MRGPRX2 [5]) [µM] | Kb (MRGPRX2 [5]) [µM] | Nature of antagonism (MRGPRX2 [5]) | other results |
| --- | --- | --- | --- | --- | --- | --- | --- | --- | --- | --- | --- | --- | --- | --- | --- | --- | --- |
| CC1(C)C(C(=O)Nc2ccccn2)C1(C)C [Compound A] | 3 | weak agonist activities | very weak antagonist activities | weak agonist activities | very weak antagonist activities | No agonist nor antagonist activity | No agonist nor antagonist activity | No agonist nor antagonist activity | > 100 | > 100 | > 50 | lack of an effect | 0.232 ± 0.026 | > 50 | 0.0257 | partly surmountable | IC50 (MRGPRX2 [5]; Inhibition of Ligand Mediated LAD-2 Cell Activation and Degranulation IC50, Mast Cell Activator: Cortistatin-14 at approx. EC80): 0.0228 µM; IC50 (MRGPRX2 [5]; Inhibition of Ligand Mediated LAD-2 Cell Activation and Degranulation IC50, Mast Cell Activator: PACAP-27 at approx. EC80): 0.0612 ± 0.0143 µM; IC50 (MRGPRX2 [5]; Inhibition of Ligand Mediated LAD-2 Cell Activation and Degranulation IC50, Mast Cell Activator: PAMP-12 at approx. EC80): 0.0633 ± 0.0062 µM; IC50 (MRGPRX2 [5]; Inhibition of Ligand Mediated LAD-2 Cell Activation and Degranulation IC50, Mast Cell Activator: Substance P (1 μM, approx. EC80)): 0.0324 µM |
| C[C@@H](C(=O)Nc1cnc(Oc2ccc(F)cc2F)cn1)N1CCC(F)(F)[C@@H](c2cc[n+]([O-])cc2)C1 [Compound B] | 0.03 | weak agonist activities | very weak antagonist activities | weak agonist activities | very weak antagonist activities | No agonist nor antagonist activity | No agonist nor antagonist activity | No agonist nor antagonist activity | > 100 | > 100 | > 50 | lack of an effect | 0.004 ± 0.0003 | > 50 | 0.000891 | insurmountable | Effect on Substance P maximal response (MRGPRX2 [5]; 7.6 nM antagonist): dampen SP’s maximal response; Effect on degranulation response to highest Substance P concentration (MRGPRX2 [5]; 20 nM antagonist, Substance P 50 μM): abolish the degranulation response; IC50 (MRGPRX2 [5]; Mast Cell Activator: Cortistatin-14 at approx. EC80, read-out: Inhibition of Ligand Mediated LAD-2 Cell Activation and Degranulation IC50): 0.001 µM; IC50 (MRGPRX2 [5]; Mast Cell Activator: PACAP-27 at approx. EC80, read-out: Inhibition of Ligand Mediated LAD-2 Cell Activation and Degranulation IC50): 0.0018 ± 0.0001 µM; IC50 (MRGPRX2 [5]; Mast Cell Activator: PAMP-12 at approx. EC80, read-out: Inhibition of Ligand Mediated LAD-2 Cell Activation and Degranulation IC50): 0.0026 ± 0.0001 µM; IC50 (MRGPRX2 [5]; Mast Cell Activator: Substance P (1 μM, approx. EC80), read-out: Inhibition of Ligand Mediated LAD-2 Cell Activation and Degranulation IC50): 0.0018 ± 0.0001 µM |
